Each compound was assayed on Huh7 psiCHECK-miR122 Renilla luciferase reporter, 48 h (assay: suppression of miR-122 activity, Renilla luciferase sensor – cell-based, Huh7 psiCHECK-miR122, cherry-pick, dose response (AID 652053)).
In the case of `CC(C)C#Cc1ccc2c(c1)O[C@H](CN(C)C(=O)Nc1ccccc1)[C@@H](C)CN([C@@H](C)CO)S2(=O)=O`, the AC40 is reported as 2080 nM.
For `CCOC(=O)CNS(=O)(=O)c1cc(-c2nnc(Nc3ccc4c(c3)OCO4)c3ccccc23)ccc1C`, the AC40 was 2630 nM.
Work on `Cc1cc(C)c(S(=O)(=O)NCCn2ccc3ccccc32)c(C)c1` yielded an AC40 of 1930 nM.
`CC(=O)N1CCSc2ccc(S(=O)(=O)Nc3ccc(C)cc3)cc21` showed an AC40 of 4200 nM.
`COc1ccc(NC(=O)C(OC(=O)Cn2cnc3c2c(=O)n(C)c(=O)n3C)c2ccccc2)cc1Cl` (stereo not drawn) showed an AC40 of 7870 nM.
With `CCc1c(C(=O)Nc2ccc(OC)cc2)[nH]c(C)c1C(C)=O` the AC40 was 5600 nM.
For `C/C(CC(=O)Nc1ccccn1)=N\NC(=O)c1ccccc1O`, the AC40 was 2590 nM.
With `COc1ccc(OC)c(S(=O)(=O)Nc2cc3c4c(c2)CCC(=O)N4CCC3)c1` the AC40 was 840 nM.
Compound `S=C(NCc1ccncc1)Nc1cc(Cl)cc(Cl)c1` has an AC40 of 5200 nM.
Compound `COc1ccc(NS(=O)(=O)c2ccc(OC)c3ccccc23)cn1` has an AC40 of 2670 nM.
`Cc1ccc(NS(=O)(=O)c2cc(-c3cc(C)no3)ccc2C(C)C)nc1` was tested, and the AC40 was 2230 nM.
`C[C@@H]1CN([C@H](C)CO)S(=O)(=O)c2ccc(-c3ccc(F)cc3)cc2O[C@@H]1CN(C)Cc1ccccc1C(=O)O` was tested, and the AC40 was 5450 nM.
`Cc1ccc(NS(=O)(=O)c2cc(C(=O)NCc3ccncc3)ccc2C)cc1` gave an AC40 of 2820 nM.
In the case of `C[C@@H]1CN([C@H](C)CO)C(=O)c2cccc(NC(=O)Nc3ccccc3)c2O[C@H]1CN(C)Cc1ccc(C(F)(F)F)cc1`, the AC40 is reported as 3220 nM.
In the case of `CC(C)C(=O)Nc1cc(S(=O)(=O)Nc2cccc(Cl)c2)ccc1Cl`, the AC40 is reported as 1520 nM.
For `COc1ccc(OC)c(N(CC(=O)N2CCC(C)CC2)S(=O)(=O)c2ccccc2)c1`, the AC40 was 4360 nM.
Work on `CC(C)c1ccc(NC(=S)NCc2cccs2)cc1` yielded an AC40 of 2800 nM.
Work on `C[C@H](CO)N1C[C@H](C)[C@H](CN(C)Cc2ccc(C(=O)Nc3ccccc3N)cc2)Oc2ccc(NC(=O)NC3CCCCC3)cc2CC1=O` yielded an AC40 of 16200 nM.
`Cc1nc2ccc(NS(=O)(=O)c3c(C)c(C)cc(C)c3C)cc2s1` gave an AC40 of 680 nM.
Work on `Cc1ccc(S(=O)(=O)NC23CC4CC(CC(C4)C2)C3)cc1` yielded an AC40 of 2150 nM.
`COc1cc(S(=O)(=O)NC2CCCCC2)c(C)cc1C` was tested, and the AC40 was 686 nM.
For `CCOC(=O)c1c(S(=O)(=O)Nc2cccc(Cl)c2)c(C)n(C)c1C`, the AC40 was 1080 nM.
`C[C@H](CO)N1C[C@H](C)[C@@H](CN(C)Cc2cncnc2)Oc2cc(C#CC3CCCC3)ccc2S1(=O)=O` showed an AC40 of 805 nM.
Work on `Cc1ccc(S(=O)(=O)Nc2cc(C)c(O)c(S(=O)(=O)c3ccc(C)cc3)c2)cc1` yielded an AC40 of 11200 nM.
Compound `CN1c2ccc(-c3ccccc3)cc2[C@H]2[C@H](CCN2S(=O)(=O)c2ccccc2F)[C@H]1CO` has an AC40 of 3630 nM.
`COc1ccc(S(=O)(=O)N(C)C[C@H]2Oc3ccc(NC(=O)Nc4ccc(C(F)(F)F)cc4)cc3C(=O)N([C@@H](C)CO)C[C@H]2C)cc1` showed an AC40 of 8410 nM.
Work on `Cc1ccc(OC(C)C(=O)Nc2ccc(C)c(S(=O)(=O)Nc3ccc(C)cc3C)c2)cc1` (stereo not drawn) yielded an AC40 of 12500 nM.
Compound `CCOc1ccccc1CN(Cc1ccco1)S(=O)(=O)c1ccc(-n2cnnn2)c(OC)c1` has an AC40 of 4360 nM.
In the case of `O=C(c1ccc(F)cc1)N1C[C@H]2[C@@H](c3ccccc31)[C@@H](CO)N2C(=O)c1ccccc1`, the AC40 is reported as 17600 nM.
For `Cc1cc(C(O)c2ncc(-c3ccccc3)[nH]2)ccc1F` (stereo not drawn), the AC40 was 19200 nM.
`COc1ccccc1NS(=O)(=O)c1cc(NC(=O)c2cc(=O)[nH]c3ccccc23)ccc1N1CCOCC1` gave an AC40 of 1010 nM.
Compound `COc1ccc(S(=O)(=O)Nc2ccc(-c3ccc4nnc(C)n4n3)cc2)c(OC)c1` has an AC40 of 4030 nM.
`CCCCn1nnnc1C(c1cccc(OC)c1OC)N1CCC2(CC1)C(=O)NCN2c1ccccc1` (stereo not drawn) gave an AC40 of 2440 nM.
Work on `CC(C)(C)C(=O)Nc1cc(S(=O)(=O)Nc2ccc(Cl)cc2)ccc1Cl` yielded an AC40 of 2740 nM.
`CC(=O)Nc1ccc(NS(=O)(=O)c2ccc3ccccc3c2)cc1` gave an AC40 of 14400 nM.
`C[C@@H]1CN([C@H](C)CO)C(=O)c2cccc(NS(=O)(=O)c3cccs3)c2O[C@H]1CN(C)Cc1ccc(C(F)(F)F)cc1` gave an AC40 of 1600 nM.
With `Cc1ccc(C(C)C)cc1S(=O)(=O)Nc1cccnc1` the AC40 was 2620 nM.
For `O=S(=O)(NC(=NCc1ccccc1)c1ccc(F)cc1)c1ccc(Cl)cc1`, the AC40 was 13700 nM.

Source: PubChem BioAssay AID652053 (Broad Institute, 2013)
